Test results published in patent US20130101632A1, “NANOPARTICULATE FORMULATIONS OF MITHRAMYCIN OR MITHRAMYCIN ANALOGUES FOR TREATING CANCER” (UNIVERSITY OF KENTUCKY RESEARCH FOUNDATION, priority 2011, published 2013).

Columns and labels:
HT29 colon cancer cells = experiment: In vivo subcutaneous tumor model; conditions: 2 mg/kg, 100 μL injection, after 18 days, HT29 subcutaneous tumors in nude mice
Experimental: Subcutaneous tumor models were established with HT29 colon cancer cells. Nude/nude mice at 8 weeks old were injected with 3×10^6 HT29 cells subcutaneously in the right flank. The tumors were then allowed to grow to a volume of ˜130 mm^3. Once the tumors reached a volume of 130 mm^3 the mice were injected with 100 μL of the desired treatment. For the control group the mice were injected with PBS. For the SK free drug and SK CNA groups the final treatment dose was 7 mg/kg and an injection volume of 100 μL. For SDK free drug and SDK CNA the final treatment dose was 2 mg/kg with an injection volume of 100 μL. Once the mice were treated the tumor volume and body mass were measured for 18 days. The groups were formed with an N=6 mice. The tumor volume was calculated by the formula 0.5(l)×w2.

HT29 cells = experiment: Cell toxicity assay in HT29 cells (resazurin); type: cell-based; conditions: 72 hrs exposure
Experimental: The in vitro cytotoxic effects of the MTM loaded CNAs (Crosslinked Nano Assemblies) were investigated in comparison to free drugs. HT29 cells were cultured as specified from ATCC at 37° C., 5% CO2. The cells were seeded on a 96 well plate (5,000 cells/well) and allowed to adhere for 24 hrs. After 24 hrs growth media were replaced with fresh media containing drug and CNA samples at differing concentrations. Free drug formulations for SK and SDK and CNA formulations were prepared in filtered DI water. The cells were exposed to samples for 72 hrs total (n=4). Cell viability was assessed using a resazurin assay that indicates mitochondrial metabolic activity in live cells. 10 μL of a 1 mM resazurin (7-Hydroxy-3H-phenoxazin-3-one 10-oxide) solution in PBS was added to the vehicle- and drug-treated cells at the end of the treatment period. Cell viability was determined three hours later by reading the fluorescence at 560 nm (Ex)/590 nm (Em). The fluorescence signals were quantified using a Spectramax® M5 plate reader (Molecular Devices) equipped with a SoftMaxPro® software. Cytotoxicity was determined by calculating the half maximal inhibitory concentration (IC50) of each sample.

A549 cells = experiment: Cell toxicity assay in A549 cells (resazurin); type: cell-based, human
Experimental: The cytotoxic effects of four MTM analogue nanoparticulate formulations were investigated in comparison to free drugs. A549 cells were cultured as specified from ATCC at 37° C., 5% CO2. The cells were seeded on a 96 well plate (5,000 cells/well) and allowed to adhere for 24 hrs. After 24 hrs growth media were replaced with fresh media containing samples at differing concentrations. 1% DMSO (biotechnological grade) was used as a control vehicle to prepare free drug formulations for SK and SDK. Self-assembled and cross-linked micelles were used as nanoparticulate formulations for SK and SDK. The cells were exposed to samples for 72 hrs total (n=8). Cell viability was assessed using a resazurin assay that indicates mitochondrial metabolic activity in live cells. 10 μL of a 1 mM resazurin solution in PBS was added to the vehicle- and drug-treated cells at the end of the treatment period. Cell viability was determined three hours later by reading the fluorescence at 560 nm (Ex)/590 nm (Em). The fluorescence signals were quantified using a Spectramax M5 plate reader (Molecular Devices) equipped with a SoftMaxPro software. Cytotoxicity was determined by calculating the half maximal inhibitory concentration (IC50) of each sample.

## CO[C@H](C(=O)C(C)=O)[C@@H]1Cc2cc3cc(OC4C[C@@H](OC5C[C@@H](O)[C@H](O)C(C)O5)[C@H](O)C(C)O4)c(C)c(O)c3c(O)c2C(=O)[C@H]1OC1C[C@@H](OC2C[C@@H](OC3C[C@](C)(O)[C@H](O)C(C)O3)[C@@H](O)C(C)O2)[C@H](O)C(C)O1 (stereo partly shown) [SDK]
HT29 colon cancer cells
  relative tumor regression as compared to the control: 48%
HT29 cells
  IC50: 216 ± 4 nM
A549 cells; 72 hrs exposure, resazurin assay
  IC50: 93 ± 35 nM
A549 cells; relative to free drug = 1.00
  Relative efficacy to free drug: 1.00
